{"source": "ChEMBL document CHEMBL5260858", "about": "“Targeting mycobacterial membranes and membrane proteins: Progress and limitations” (Bioorg Med Chem, 2023)", "key": {"[1]": {"system": "Mycobacterium tuberculosis", "test": "Antitubercular activity against Mycobacterium tuberculosis H37Rv assessed as bacterial growth inhibition in presence of clavulanate by checkerboard assay", "format": "functional"}, "[2]": {"system": "Mycobacterium tuberculosis", "test": "Antitubercular activity against Mycobacterium tuberculosis H37Rv assessed as bacterial growth inhibition by checkerboard assay", "format": "functional"}, "[3]": {"system": "Mycobacterium tuberculosis", "test": "Antitubercular activity against Mycobacterium tuberculosis H37Rv assessed as bacterial growth inhibition incubated for 7 days by microplate alamar blue assay", "format": "functional", "conditions": "168 h, time 7 day"}, "[4]": {"system": "Mycobacterium tuberculosis", "test": "Antitubercular activity against Mycobacterium tuberculosis H37Rv assessed as bacterial growth inhibition incubated for 6 days by resazurin reduction microplate assay", "format": "functional", "conditions": "144 h, time 6 day"}, "[5]": {"system": "Mycobacterium tuberculosis", "test": "Antitubercular activity against Mycobacterium tuberculosis H37Rv infected in human HepG2 cells assessed as bacterial growth inhibition incubated for 4 weeks by resazurin reduction microtiter assay", "format": "functional, organism-based", "conditions": "HepG2, 672 h"}, "[6]": {"system": "Mycobacterium tuberculosis", "test": "Antitubercular activity against Mycobacterium tuberculosis H37Rv infected in BALB/c mouse assessed as reduction in bacterial load at 200 mg/kg, po for 10 days by CFU analysis", "format": "functional", "conditions": "time 10 day"}, "[7]": {"system": "Mycobacterium tuberculosis", "test": "Antimycobacterial activity against Mycobacterium tuberculosis CIP103471 infected in human U-937 cells assessed as bacterial growth inhibition incubated for 7 days", "format": "functional", "conditions": "CIP103471, 168 h, time 7 day"}, "[8]": {"system": "Mycobacterium tuberculosis", "test": "Antitubercular activity against Mycobacterium tuberculosis H37Rv assessed as bacterial growth inhibition", "format": "functional"}, "[9]": {"system": "Mycobacterium tuberculosis", "test": "Antitubercular activity against Mycobacterium tuberculosis Erdman assessed as bacterial growth inhibition", "format": "functional"}, "[10]": {"system": "Mycobacterium tuberculosis", "test": "Antitubercular activity against Mycobacterium tuberculosis H37Rv assessed as bacterial growth inhibition incubated for 7 days by resazurin reduction microplate assay", "format": "functional", "conditions": "168 h, time 7 day"}, "[11]": {"system": "Mycobacterium tuberculosis", "test": "Antitubercular activity against Mycobacterium tuberculosis H37Rv infected in BALB/c mouse assessed as reduction in bacterial load at 150 mg/kg, po for 10 days by CFU analysis", "format": "functional", "conditions": "time 10 day"}, "[12]": {"system": "Mycobacterium tuberculosis", "test": "Antimycobacterial activity against Mycobacterium tuberculosis H37Rv assessed as bacterial growth inhibition incubated for 7 days by microplate alamar blue assay", "format": "functional", "conditions": "168 h, time 7 day"}, "[13]": {"system": "Mycobacterium tuberculosis", "test": "Antimycobacterial activity against Mycobacterium tuberculosis Erdman assessed as bacterial growth inhibition incubated for 7 days by microplate alamar blue assay", "format": "functional", "conditions": "168 h, time 7 day"}, "[14]": {"system": "Mycobacterium avium", "test": "Antimycobacterial activity against Mycobacterium avium assessed as bacterial growth inhibition incubated for 7 days by microplate alamar blue assay", "format": "functional", "conditions": "168 h, time 7 day"}, "[15]": {"system": "Mycobacterium tuberculosis", "test": "In vivo antimycobacterial activity against Mycobacterium tuberculosis Erdman infected in Balb/c mouse assessed as reduction in log10 CFU in lungs at 15 mg/kg,po for 4 weeks […]", "format": "functional"}, "[16]": {"system": "Mycobacterium tuberculosis", "test": "In vivo antimycobacterial activity against Mycobacterium tuberculosis H37Rv infected in BALB/c mouse assessed as reduction in bacterial load at 200 mg/kg, po for 2 weeks", "format": "functional"}, "[17]": {"system": "Mycobacterium tuberculosis", "test": "In vivo antimycobacterial activity against Mycobacterium tuberculosis H37Rv infected in BALB/c mouse assessed as reduction in bacterial load at 300 mg/kg, po for 5 days", "format": "functional", "conditions": "time 5 day"}, "[18]": {"system": "Mycobacterium tuberculosis", "test": "Antitubercular activity against Mycobacterium tuberculosis H37Rv TMC102 assessed as bacterial growth inhibition", "format": "functional"}, "[19]": {"system": "Mycobacterium tuberculosis", "test": "Antitubercular activity against Mycobacterium tuberculosis CDC1551 assessed as bacterial growth inhibition for 6 days by spectroscopic analysis", "format": "functional, organism-based", "conditions": "CDC1551, 144 h"}, "[20]": {"system": "Mycobacterium tuberculosis", "test": "Antitubercular activity against Mycobacterium tuberculosis CDC1551 infected in mouse bone marrow derived macrophage assessed as bacterial growth inhibition for 2 days by spectroscopic analysis", "format": "functional", "conditions": "CDC1551, 48 h, time 2 day"}, "[21]": {"system": "Mycobacterium tuberculosis", "test": "Antitubercular activity against Mycobacterium tuberculosis H37Rv assessed as bacterial growth inhibition incubated for 7 days by Alamar blue based fluorescence assay", "format": "functional", "conditions": "168 h, time 7 day"}, "[22]": {"system": "Mycolicibacterium smegmatis", "test": "Antitubercular activity against Mycobacterium smegmatis assessed as bacterial growth inhibition", "format": "functional"}, "[23]": {"system": "Mycobacterium tuberculosis", "test": "In vivo antimycobacterial activity against Mycobacterium tuberculosis H37Rv infected in BALB/c mouse assessed as reduction in bacterial load in lung at 50 mg/kg, po and measured after 3 weeks", "format": "functional"}, "[24]": {"system": "Mycobacterium tuberculosis", "test": "In vivo antimycobacterial activity against Mycobacterium tuberculosis H37Rv infected in BALB/c mouse assessed as reduction in bacterial load in lung at 100 mg/kg, po and measured after 3 weeks", "format": "functional"}, "[25]": {"system": "Mycobacterium tuberculosis", "test": "In vivo antimycobacterial activity against Mycobacterium tuberculosis H37Rv infected in BALB/c mouse assessed as reduction in bacterial load in lung at 200 mg/kg, po and measured after 4 weeks", "format": "functional"}}}
{"smiles": "CO[C@H]1CCC[C@H]2C1=C(C(=O)OC(C)OC(=O)OC1CCCCC1)N1C(=O)[C@H]([C@@H](C)O)[C@@H]21", "note": "(stereo not given in full) [SANFETRINEM CILEXETIL]", "values": [{"measurement": "MIC", "setting": "[1]", "result": 5, "unit": "µM"}, {"measurement": "MIC", "setting": "[2]", "result": 7.5, "unit": "µM"}]}
{"smiles": "O=c1cc(-c2ccccc2O)oc2ccc(O)c(CN3CCC3)c12", "values": [{"measurement": "MIC", "setting": "[3]", "result": 0.45, "unit": "µg/mL"}]}
{"smiles": "O=C(/C=C/c1cccs1)N1CCN(Cc2ccc3c(c2)OCO3)CC1", "values": [{"measurement": "MIC", "setting": "[4]", "result": 0.05, "unit": "µg/mL"}, {"measurement": "IC50", "setting": "[5]", "result": 0.1, "unit": "µg/mL"}, {"measurement": "Activity", "setting": "[6]", "result": 0.4, "unit": "log10CFU"}]}
{"smiles": "Cc1c(CN2CCN(C)CC2)cc(-c2ccc(Cl)cc2)n1-c1ccc(Cl)cc1", "values": [{"measurement": "MIC", "setting": "[7]", "result": 1, "unit": "µg/mL"}]}
{"smiles": "Cc1c(OCC(F)(F)F)ccnc1CSc1nc2ccccc2[nH]1", "note": "[LANSOPRAZOLE SULFIDE]", "values": [{"measurement": "MIC90", "setting": "[8]", "result": 1.13, "unit": "µM"}, {"measurement": "MIC90", "setting": "[9]", "result": 1.21, "unit": "µM"}]}
{"smiles": "CCSc1nc(NC)c2ccc(F)c(F)c2n1", "values": [{"measurement": "MIC", "setting": "[10]", "result": 0.02, "unit": "µg/mL"}, {"measurement": "Activity", "setting": "[11]", "result": 0.5, "unit": "log10CFU"}]}
{"smiles": "O=[N+]([O-])c1cc(C(F)(F)F)cc2c(=S)nc(N3CCC4(CC3)OCCO4)sc12", "values": [{"measurement": "MIC", "setting": "[12]", "result": 0.02, "unit": "µg/mL"}, {"measurement": "MIC", "setting": "[13]", "result": 32, "unit": "µg/mL"}, {"measurement": "MIC", "setting": "[14]", "result": "< 0.05", "unit": "µg/mL"}, {"measurement": "Activity", "setting": "[15]", "result": 3.4, "unit": "log10CFU"}]}
{"smiles": "CNC(=O)c1c(-c2ccc(O)cc2)oc2ccc(O)c(CN3CCCCC3)c12", "values": [{"measurement": "Activity", "setting": "[16]", "result": 6.8, "unit": "log10CFU"}, {"measurement": "Activity", "setting": "[17]", "result": 7, "unit": "log10CFU"}]}
{"smiles": "O=C(Nc1ccc(F)c(F)c1F)NC12CC3CC(CC(C3)C1)C2", "values": [{"measurement": "MIC", "setting": "[18]", "result": 0.1, "unit": "µg/mL"}]}
{"smiles": "O=C(NCCc1ccc(Cl)cc1)C1(c2cccs2)CCOCC1", "values": [{"measurement": "EC50", "setting": "[19]", "result": 6.4, "unit": "µM"}, {"measurement": "MIC99", "setting": "[20]", "result": 19.3, "unit": "µM"}]}
{"smiles": "COc1ncccc1Nc1cc2nc3ccccc3n(-c3ccc(OC(F)(F)F)cc3)c-2c/c1=N\\C1CCC(OC)CC1", "note": "(stereo not given)", "values": [{"measurement": "MIC", "setting": "[21]", "result": 0.016, "unit": "µg/mL"}]}
{"smiles": "CCOC(=O)NC(=O)c1ccsc1NC(=O)c1nc2ccncc2s1", "values": [{"measurement": "MIC", "setting": "[22]", "result": 0.089, "unit": "µM"}, {"measurement": "Activity", "setting": "[23]", "result": 1.7, "unit": "log10CFU"}, {"measurement": "Activity", "setting": "[24]", "result": 2.3, "unit": "log10CFU"}, {"measurement": "Activity", "setting": "[25]", "result": ">1.7", "unit": "log10CFU"}]}
